Measurements reported in patent US8548745B2, “Visual-servoing optical microscopy” (The Regents of the University of California, priority 2000, dated 2013).

How the values were obtained:
[1] = test system: MCF-7 ADR (MDR) cells; test: VSOM MDR assay (MDR Assay Beta-Test kit), calcein accumulation, run 2; conditions: for calcein accumulation in selected single cells on exposure to modulator: two of four selected single cell response curves, run 2, CAM+V (syringe #5) or CAM+MK
Description: Both runs used the pump schedule. […] The red line in each case represents the average of all the cell responses in the entire field of view.
The MDR Assay β-Test kit was also tested in a VSOM experiment, as described herein. […] Pumps are turned on and off at specified flow rates according to a pre-programmed recipe, or based on real-time analysis of individual cell responses. The CAM, V, and MK concentrations used are noted in the figure. The three exposures to CAM were 900 seconds (20 min) each, and thus the total exposure to CAM was 60 min. The black windows at the bottom of the Figure show the mean response of all cells in the field of view.
The plot and images were continuously refreshed and updated during the experiment. […] However, the mean cellular fluorescence of each cell was monitored during VSOM experiments, and making deviations from the mean easily detectable. […] Such cells are unable to retain calcein, and it leaks out, causing the fluorescence signal to drop.

[2] = test system: MCF-7 WTC (DS) cells; test: VSOM MDR assay (MDR Assay Beta-Test kit), calcein accumulation, run 1; format: cell-based, human; conditions: run 1, N=336, three CAM exposures
Text: Both runs used the pump schedule.

[3] = test system: DoHH2 lymphoma; conditions: full phosphorothioate 18-mer; severe immunodeficient mice (Raynaud et al.); cited from earlier work
[4] = test system: mRNA translation; conditions: cell-free system (Mologni et al.); only when both PNA-ODNs are simultaneously present; cited from earlier work
[5] = test system: MCF-7 WTC cells; test: ADR visual servoing experiment, CAM perfusion until average MI threshold; format: cell-based, human; conditions: 1 μM CAM in DBPSGP perfused at 0.5 mL/min
Description: MCF-7 WTC cells were grown in 35 mm cell culture dishes, and were pre-stained with H42. After an approximately 1 hr pre-incubation with H42, cells were rinsed with DPBSGP and were placed in the warm microscope chamber. The ADR program successfully operated in the following fashion. Three digital images (360 nm excitation, 490 nm excitation, and transmitted light, brightfield) were acquired at regular specified intervals through this experiment and all the H42 stained nuclei were detected and segmented before the next image interval. The nuclear contours for each nucleus that were delineated in the blue channel were used to calculate a mean cellular fluorescence intensity value from the green channel (MI). An initial perfusion of DBPSGP solution only (syringe #1) was performed at 1.0 mL/min for 8.3 minutes, (as specified by the user), and then syringe #1 was stopped. Next, a perfusion of DBPSGP solution containing 1 μM CAM (syringe #2) was begun at 0.5 mL/min. When the average MI of all the cells reached a specified threshold, syringe #2 was stopped via successful visual servoing. It took 13.9 minutes for the cells to accumulate sufficient CAM, and for the system to detect sufficient intracellular CAM (in the nuclear region), before the system successfully stopped syringe #2, and restarted syringe #1. After 11.4 min (as specified) the system stopped syringe #1 again. […]

Molecule: CN(C)C(=O)CCSC(SCCC(=O)O)c1cccc(/C=C/c2ccc3ccc(Cl)cc3n2)c1 (centres unmarked) [MK-571]
- calcein accumulation in selected single cells on exposure to modulator [1]: not inhibited

Molecule: O=C(O)CN(CC(=O)O)Cc1cc2c(cc1O)Oc1cc(O)c(CN(CC(=O)O)CC(=O)O)cc1C21OC(=O)c2ccccc21 [calcein]
- calcein accumulation (mean cellular fluorescence, mean of all cells in field) [2]: 240±82
- calcein accumulation (mean cellular fluorescence, mean of all cells in field) ([1]; MDR cells, run 2, N=161, three CAM exposures): 103±80

Molecule: COc1ccc(CCN(C)CCCC(C#N)(c2ccc(OC)c(OC)c2)C(C)C)cc1OC (centres unmarked) [verapamil]
- calcein accumulation in selected single cells on exposure to modulator [1]: do not accumulate calcein until verapamil (V) exposure

Molecule: SEQ ID NO:1: 18-mer TCTC CCAG CGTG CGCC AT, anti-sense to the first six codons of the open reading frame of bcl-2 (antisense TCTCCCAGCGTGCGCCAT; chemistry not given here; listed as Homo sapiens)
- efficacy against DoHH2 lymphoma [3]: has shown efficacy

Molecule: SEQ ID NO:2: 15-mer peptide nucleic acid oligodeoxyribonucleotide CCCC AGCC CCTA CCC (CCCCAGCCCCTACCC; all peptide nucleic acid (PNA); further chemistry not fully specified; listed as Homo sapiens)
- block of mRNA translation [4]: complete block

Molecule: SEQ ID NO:3: 15-mer peptide nucleic acid oligodeoxyribonucleotide AGCG TGCG CCAT CCC (AGCGTGCGCCATCCC; all peptide nucleic acid (PNA); further chemistry not fully specified; listed as Homo sapiens)
- block of mRNA translation [4]: complete block

Molecule: calcein-AM [CAM]
- time for cells to accumulate sufficient CAM to reach the specified average MI threshold [5]: 13.9 min
